Measured values published in ChEMBL document CHEMBL1773033, “Cyclic lactam hybrid α-MSH/Agouti-related protein (AGRP) analogues with nanomolar range binding affinities at the human melanocortin receptors” (Bioorg Med Chem Lett, 2011).
Positions of bridges follow the written chain, without caps; N, C: chain ends. Non-standard residues stand in square brackets, D forms with d. Residues, ends and D or L forms follow the SMILES beside them. 2Nal = N[C@@H](Cc1ccc2ccccc2c1)C(=O)O

Legend:
Melanocortin receptor 3 [1] = biological target: T1, Melanocortin receptor 3 (Homo sapiens, UniProt P41968); test: Displacement of [125I]-NDP-alpha-MSH from human MC3R expressed in HEK293 cells at 10 uM after 40 mins by Wallac 1470 gamma counting relative to Ac-Nle-c[Asp-His-D-Phe-Arg-Trp-Lys]-NH2; assay type: cell-based
[2] = biological target: T2, Melanocyte-stimulating hormone receptor (Homo sapiens, UniProt Q01726); test: Agonist activity at human MC1R expressed in HEK293 cells assessed as increase in intracellular cAMP accumulation; assay type: functional, cell-based
Target sequence in this assay (Q01726 whole entry): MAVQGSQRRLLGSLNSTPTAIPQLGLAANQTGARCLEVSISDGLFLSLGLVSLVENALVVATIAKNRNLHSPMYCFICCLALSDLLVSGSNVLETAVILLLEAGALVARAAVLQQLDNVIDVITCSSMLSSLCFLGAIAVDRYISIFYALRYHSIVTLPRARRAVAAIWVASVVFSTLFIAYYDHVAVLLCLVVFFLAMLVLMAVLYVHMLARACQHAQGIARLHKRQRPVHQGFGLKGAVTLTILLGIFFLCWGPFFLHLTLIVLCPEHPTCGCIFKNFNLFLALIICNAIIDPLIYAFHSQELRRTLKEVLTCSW

Melanocortin receptor 3 [3] = biological target: T1, Melanocortin receptor 3; test: Agonist activity at human MC3R expressed in HEK293 cells assessed as intracellular cAMP accumulation; assay type: functional, cell-based
Melanocortin receptor 4 [4] = biological target: T3, Melanocortin receptor 4 (Homo sapiens, UniProt P32245); test: Agonist activity at human MC4R expressed in HEK293 cells assessed as intracellular cAMP accumulation; assay type: functional, cell-based
Melanocortin receptor 5 [5] = biological target: T4, Melanocortin receptor 5 (Homo sapiens, UniProt P33032); test: Agonist activity at human MC5R expressed in HEK293 cells assessed as intracellular cAMP accumulation; assay type: functional, cell-based
Melanocortin receptor 4 [6] = biological target: T3, Melanocortin receptor 4; test: Agonist activity at human MC4R expressed in HEK293 cells assessed as increase in intracellular cAMP level at 10 uM after 3 mins by luminescence counter relative to Ac-Nle-c[Asp-His-D-Phe-Arg-Trp-Lys]-NH2; assay type: functional, cell-based
Melanocortin receptor 4 [7] = biological target: T3, Melanocortin receptor 4; test: Displacement of [125I]-NDP-alpha-MSH from human MC4R expressed in HEK293 cells after 40 mins by Wallac 1470 gamma counting; assay type: cell-based
[8] = biological target: T2, Melanocyte-stimulating hormone receptor; test: Agonist activity at human MC1R expressed in HEK293 cells assessed as increase in intracellular cAMP level at 10 uM after 3 mins by luminescence counter relative to Ac-Nle-c[Asp-His-D-Phe-Arg-Trp-Lys]-NH2; assay type: functional, cell-based
Target sequence in this assay (Q01726 whole entry, looked up): as the sequence (Q01726 whole entry) above

Melanocortin receptor 5 [9] = biological target: T4, Melanocortin receptor 5; test: Agonist activity at human MC5R expressed in HEK293 cells assessed as increase in intracellular cAMP level at 10 uM after 3 mins by luminescence counter relative to Ac-Nle-c[Asp-His-D-Phe-Arg-Trp-Lys]-NH2; assay type: functional, cell-based
[10] = biological target: T2, Melanocyte-stimulating hormone receptor; test: Displacement of [125I]-NDP-alpha-MSH from human MC1R expressed in HEK293 cells after 40 mins by Wallac 1470 gamma counting; assay type: cell-based
Target sequence in this assay (Q01726 whole entry): as above

Melanocortin receptor 3 [11] = biological target: T1, Melanocortin receptor 3; test: Displacement of [125I]-NDP-alpha-MSH from human MC3R expressed in HEK293 cells after 40 mins by Wallac 1470 gamma counting; assay type: cell-based
Melanocortin receptor 5 [12] = biological target: T4, Melanocortin receptor 5; test: Displacement of [125I]-NDP-alpha-MSH from human MC5R expressed in HEK293 cells after 40 mins by Wallac 1470 gamma counting; assay type: cell-based
[13] = biological target: T2, Melanocyte-stimulating hormone receptor; test: Displacement of [125I]-NDP-alpha-MSH from human MC1R expressed in HEK293 cells at 10 uM after 40 mins by Wallac 1470 gamma counting relative to Ac-Nle-c[Asp-His-D-Phe-Arg-Trp-Lys]-NH2; assay type: cell-based
Target sequence in this assay (Q01726 whole entry, looked up): as the sequence (Q01726 whole entry) above

Melanocortin receptor 3 [14] = biological target: T1, Melanocortin receptor 3; test: Agonist activity at human MC3R expressed in HEK293 cells assessed as increase in intracellular cAMP level at 10 uM after 3 mins by luminescence counter relative to Ac-Nle-c[Asp-His-D-Phe-Arg-Trp-Lys]-NH2; assay type: functional, cell-based
Melanocortin receptor 4 [15] = biological target: T3, Melanocortin receptor 4; test: Displacement of [125I]-NDP-alpha-MSH from human MC4R expressed in HEK293 cells at 10 uM after 40 mins by Wallac 1470 gamma counting relative to Ac-Nle-c[Asp-His-D-Phe-Arg-Trp-Lys]-NH2; assay type: cell-based
Melanocortin receptor 5 [16] = biological target: T4, Melanocortin receptor 5; test: Displacement of [125I]-NDP-alpha-MSH from human MC5R expressed in HEK293 cells at 10 uM after 40 mins by Wallac 1470 gamma counting relative to Ac-Nle-c[Asp-His-D-Phe-Arg-Trp-Lys]-NH2; assay type: cell-based

T4 sequence (P33032 whole entry): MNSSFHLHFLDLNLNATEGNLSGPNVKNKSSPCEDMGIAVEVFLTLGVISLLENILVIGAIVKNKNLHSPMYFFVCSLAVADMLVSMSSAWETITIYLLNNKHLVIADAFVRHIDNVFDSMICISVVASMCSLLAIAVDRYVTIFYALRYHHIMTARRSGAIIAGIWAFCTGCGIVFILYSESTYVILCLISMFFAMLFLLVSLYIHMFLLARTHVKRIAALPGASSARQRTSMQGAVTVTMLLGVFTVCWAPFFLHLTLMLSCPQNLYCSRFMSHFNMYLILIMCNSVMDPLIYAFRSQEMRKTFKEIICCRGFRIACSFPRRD
T1 sequence (P41968 whole entry): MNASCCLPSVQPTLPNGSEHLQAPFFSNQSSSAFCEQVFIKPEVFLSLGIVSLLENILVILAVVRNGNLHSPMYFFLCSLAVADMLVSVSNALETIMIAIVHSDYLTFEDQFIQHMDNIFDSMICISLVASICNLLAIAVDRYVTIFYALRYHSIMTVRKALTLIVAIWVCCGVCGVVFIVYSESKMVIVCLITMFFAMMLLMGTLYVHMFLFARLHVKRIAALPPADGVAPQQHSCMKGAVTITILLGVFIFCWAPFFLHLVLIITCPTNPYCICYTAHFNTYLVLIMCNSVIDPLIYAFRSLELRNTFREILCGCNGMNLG
T3 sequence (P32245 whole entry): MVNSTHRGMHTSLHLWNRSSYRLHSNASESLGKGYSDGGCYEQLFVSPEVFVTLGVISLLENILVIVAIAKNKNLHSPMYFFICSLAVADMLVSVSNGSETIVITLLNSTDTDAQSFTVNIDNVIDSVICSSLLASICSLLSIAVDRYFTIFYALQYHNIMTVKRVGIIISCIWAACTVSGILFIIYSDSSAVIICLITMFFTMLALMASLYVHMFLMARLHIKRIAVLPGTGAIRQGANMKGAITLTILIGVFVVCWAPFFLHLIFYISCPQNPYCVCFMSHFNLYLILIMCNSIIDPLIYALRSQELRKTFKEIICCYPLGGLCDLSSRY

Activity (Melanocortin receptor 3 [1])	EC50 [2]	EC50 (Melanocortin receptor 3 [3])	EC50 (Melanocortin receptor 4 [4])	EC50 (Melanocortin receptor 5 [5])	Activity (Melanocortin receptor 4 [6])	IC50 (Melanocortin receptor 4 [7])	Activity [8]	Activity (Melanocortin receptor 5 [9])	IC50 [10]	IC50 (Melanocortin receptor 3 [11])	IC50 (Melanocortin receptor 5 [12])	Activity [13]	Activity (Melanocortin receptor 3 [14])	Activity (Melanocortin receptor 4 [15])	Activity (Melanocortin receptor 5 [16])	SMILES
30%	Not Active	Not Active	Not Active	Not Active	0%	Not Active	–	–	–	–	–	–	–	–	–	C[C@@H]1NC(=O)[C@@H](CCCNC(=N)N)NC(=O)[C@H](Cc2ccccc2)NC(=O)[C@H](Cc2c[nH]c3ccccc23)NC(=O)[C@H](CCCNC(=N)N)NC(=O)CC[C@@H](C(N)=O)NC(=O)[C@H](Cc2ccccc2)NC1=O
–	–	Not Active	Not Active	Not Active	–	–	–	–	–	–	–	–	–	–	–	C[C@@H]1NC(=O)[C@H](CCCNC(=N)N)NC(=O)[C@@H](Cc2ccccc2)NC(=O)[C@H](Cc2c[nH]c3ccccc23)NC(=O)[C@H](CCCNC(=N)N)NC(=O)CC[C@@H](C(N)=O)NC(=O)[C@H](Cc2ccccc2)NC1=O
0%	Not Active	Not Active	Not Active	Not Active	0%	Not Active	0%	0%	Not Active	Not Active	Not Active	–	–	–	–	CC(=O)N[C@H]1CC(=O)NCCCC[C@@H](C(N)=O)NC(=O)[C@@H](CC(N)=O)NC(=O)[C@H](Cc2ccc3ccccc3c2)NC(=O)[C@H](Cc2c[nH]c3ccccc23)NC(=O)[C@H](CCCNC(=N)N)NC1=O (Ac-DRW[2Nal][dN]K-NH2; lactam 1-6)
0%	Not Active	Not Active	Not Active	Not Active	0%	Not Active	0%	0%	Not Active	Not Active	Not Active	–	–	–	–	CC(=O)N[C@H]1CC(=O)NCCCC[C@@H](C(N)=O)NC(=O)[C@@H](CCC(N)=O)NC(=O)[C@H](Cc2ccc3ccccc3c2)NC(=O)[C@H](Cc2c[nH]c3ccccc23)NC(=O)[C@H](CCCNC(=N)N)NC1=O (Ac-DRW[2Nal][dQ]K-NH2; lactam 1-6)
–	Not Active	Not Active	Not Active	Not Active	0%	Not Active	–	0%	Not Active	Not Active	Not Active	0%	0%	–	–	C[C@@H]1NC(=O)[C@H](CC(N)=O)NC(=O)[C@H](Cc2ccccc2)NC(=O)[C@H](Cc2c[nH]c3ccccc23)NC(=O)[C@H](CCCNC(=N)N)NC(=O)CC[C@@H](C(N)=O)NC(=O)[C@H](Cc2ccccc2)NC1=O (RWFNAFE-NH2; lactam N-7)
–	Not Active	Not Active	Not Active	Not Active	0%	Not Active	–	0%	–	Not Active	Not Active	–	0%	–	–	C[C@@H]1NC(=O)[C@@H](Cc2cnc[nH]2)NC(=O)[C@H](Cc2ccccc2)NC(=O)[C@H](Cc2c[nH]c3ccccc23)NC(=O)[C@H](CCCNC(=N)N)NC(=O)CC[C@@H](C(N)=O)NC(=O)[C@H](Cc2ccccc2)NC1=O (RWF[dH]AFE-NH2; lactam N-7)
0%	Not Active	Not Active	Not Active	Not Active	0%	Not Active	–	0%	Not Active	Not Active	Not Active	0%	–	–	–	C[C@@H]1NC(=O)[C@@H](CC(N)=O)NC(=O)[C@H](Cc2ccccc2)NC(=O)[C@H](Cc2c[nH]c3ccccc23)NC(=O)[C@H](CCCNC(=N)N)NC(=O)CC[C@@H](C(N)=O)NC(=O)[C@H](Cc2ccccc2)NC1=O (RWF[dN]AFE-NH2; lactam N-7)
0%	Not Active	Not Active	Not Active	Not Active	–	Not Active	0%	0%	Not Active	Not Active	Not Active	–	–	0%	–	C[C@@H]1NC(=O)[C@@H](CCC(N)=O)NC(=O)[C@H](Cc2ccccc2)NC(=O)[C@H](Cc2c[nH]c3ccccc23)NC(=O)[C@H](CCCNC(=N)N)NC(=O)CC[C@@H](C(N)=O)NC(=O)[C@H](Cc2ccccc2)NC1=O (RWF[dQ]AFE-NH2; lactam N-7)
0%	Not Active	Not Active	Not Active	Not Active	0%	Not Active	0%	–	Not Active	Not Active	Not Active	–	–	–	0%	C[C@@H]1NC(=O)[C@@H](CC(N)=O)NC(=O)[C@H](Cc2ccc3ccccc3c2)NC(=O)[C@H](Cc2c[nH]c3ccccc23)NC(=O)[C@H](CCCNC(=N)N)NC(=O)CC[C@@H](C(N)=O)NC(=O)[C@H](Cc2ccccc2)NC1=O (RW[2Nal][dN]AFE-NH2; lactam N-7)
–	Not Active	Not Active	Not Active	Not Active	0%	Not Active	–	0%	Not Active	Not Active	Not Active	0%	0%	–	–	C[C@@H]1NC(=O)[C@@H](CCC(N)=O)NC(=O)[C@H](Cc2ccc3ccccc3c2)NC(=O)[C@H](Cc2c[nH]c3ccccc23)NC(=O)[C@H](CCCNC(=N)N)NC(=O)CC[C@@H](C(N)=O)NC(=O)[C@H](Cc2ccccc2)NC1=O (RW[2Nal][dQ]AFE-NH2; lactam N-7)
–	Not Active	Not Active	Not Active	Not Active	–	Not Active	0%	0%	Not Active	Not Active	Not Active	–	0%	0%	–	C[C@@H]1NC(=O)[C@H](Cc2cnc[nH]2)NC(=O)[C@@H](Cc2ccccc2)NC(=O)[C@H](Cc2c[nH]c3ccccc23)NC(=O)[C@H](CCCNC(=N)N)NC(=O)CC[C@@H](C(N)=O)NC(=O)[C@H](Cc2ccccc2)NC1=O (RW[dF]HAFE-NH2; lactam N-7)
–	Not Active	Not Active	Not Active	Not Active	0%	Not Active	–	0%	Not Active	Not Active	Not Active	0%	0%	–	–	C[C@@H]1NC(=O)[C@H](CC(N)=O)NC(=O)[C@@H](Cc2ccccc2)NC(=O)[C@H](Cc2c[nH]c3ccccc23)NC(=O)[C@H](CCCNC(=N)N)NC(=O)CC[C@@H](C(N)=O)NC(=O)[C@H](Cc2ccccc2)NC1=O (RW[dF]NAFE-NH2; lactam N-7)
